Measurements from the NIST ThermoML archive (doi:10.1021/je700707y).
Several values for one entry are separate records, joined by “and”; a condition that tells them apart may be missing. Equal entries are not always repeated.

Tests used:
[1] = 101.33 kPa, Liquid, Vibrating tube method
[2] = wn = mass fraction of the nth substance listed; settings: Liquid, Vibrating tube method, w2 = 0.001

C[N+]1(CC#N)CCCC1.O=S(=O)([N-]S(=O)(=O)C(F)(F)F)C(F)(F)F
[1]
Settings | mass density [kg/m3]
293.15 K | 1545.4
298.15 K | 1537.8
303.15 K | 1533.1
313.15 K | 1523.8
323.15 K | 1514.5
333.15 K | 1505.5
343.15 K | 1496.7
353.15 K | 1487.8
363.15 K | 1479

CCCC[n+]1ccn(C)c1.O=S(=O)([N-]S(=O)(=O)C(F)(F)F)C(F)(F)F + O
[2], 101 kPa
Settings | mass density [kg/m3]
293.15 K | 1439.9
298.15 K | 1435.1
303.15 K | 1430.3
308.15 K | 1425.5
313.15 K | 1420.7
318.15 K | 1416
323.15 K | 1411.2
328.15 K | 1406.5
333.15 K | 1401.7
338.15 K | 1396.9
343.15 K | 1392.2

CCCCCCCCn1cc[n+](C)c1.O=S(=O)([N-]S(=O)(=O)C(F)(F)F)C(F)(F)F
[1]
Settings | mass density [kg/m3]
293.15 K | 1324.5
303.15 K | 1315.8
313.15 K | 1307
323.15 K | 1298.2
333.15 K | 1289.5
343.15 K | 1280.8
353.15 K | 1272.1
363.15 K | 1263.5

CCOS(=O)(=O)[O-].CCn1cc[n+](C)c1 [1-ethyl-3-methylimidazolium ethyl sulfate]
[1]
Settings | mass density [kg/m3]
293.15 K | 1242.3
303.15 K | 1235.6
313.15 K | 1228.9
323.15 K | 1222.1
333.15 K | 1215.5
343.15 K | 1208.8
353.15 K | 1202.2
363.15 K | 1195.6

CCn1cc[n+](C)c1.O=S(=O)([N-]S(=O)(=O)C(F)(F)F)C(F)(F)F + O
[2], 101 kPa
Settings | mass density [kg/m3]
293.15 K | 1520
298.15 K | 1515
303.15 K | 1510
308.15 K | 1504.9
313.15 K | 1499.8
318.15 K | 1494.8
323.15 K | 1489.8
328.15 K | 1484.8
333.15 K | 1479.7
338.15 K | 1474.7
343.15 K | 1469.7

CCCCn1cc[n+](C)c1.F[B-](F)(F)F [1-butyl-3-methylimidazolium tetrafluoroborate] + O
Settings | mass density [kg/m3]
[2], 298.15 K, 100 kPa | 1197.5

CCCCCCCCCCCCCC[P+](CCCCCC)(CCCCCC)CCCCCC.O=S(=O)([N-]S(=O)(=O)C(F)(F)F)C(F)(F)F
[1]
Settings | mass density [kg/m3]
293.15 K | 1067.6
303.15 K | 1060.3
313.15 K | 1052.9
323.15 K | 1045.7
333.15 K | 1038.6
343.15 K | 1031.5
353.15 K | 1024.4
363.15 K | 1017.3

Cn1cc[n+](C)c1.N#C[S-] [1,3-dimethylimidazolium thiocyanate]
[1]
Settings | mass density [kg/m3]
293.15 K | 1160.7
298.15 K | 1157.4
303.15 K | 1154.2
313.15 K | 1147.8
323.15 K | 1141.4
333.15 K | 1135.2
343.15 K | 1129.1
353.15 K | 1123.1
363.15 K | 1117.2

CCCCCCCCCCn1cc[n+](C)c1.O=S(=O)([N-]S(=O)(=O)C(F)(F)F)C(F)(F)F + O
Settings | mass density [kg/m3]
[2], 298.15 K, 100 kPa | 1275.5

CCn1cc[n+](C)c1.O=S(=O)([N-]S(=O)(=O)C(F)(F)F)C(F)(F)F
[1]
Settings | mass density
293.15 K | 1522.9 kg/m3 and 1523.4 kg/m3
298.15 K | 1517.9 kg/m3
303.15 K | 1512.9 kg/m3 and 1513.4 kg/m3
308.15 K | 1507.9 kg/m3
313.15 K | 1502.9 kg/m3 and 1503.4 kg/m3
318.15 K | 1497.9 kg/m3
323.15 K | 1492.9 kg/m3 and 1493.4 kg/m3
328.15 K | 1488 kg/m3
333.15 K | 1483 kg/m3 and 1483.5 kg/m3
338.15 K | 1478 kg/m3
343.15 K | 1473 kg/m3 and 1473.7 kg/m3
353.15 K | 1463.8 kg/m3
363.15 K | 1454 kg/m3

CCCCn1cc[n+](C)c1.O=S(=O)([O-])C(F)(F)F [1-butyl-3-methylimidazolium trifluoromethanesulfonate]
[1]
Settings | mass density [kg/m3]
293.15 K | 1301.3
303.15 K | 1293.4
313.15 K | 1285.6
323.15 K | 1277.7
333.15 K | 1269.9
343.15 K | 1262.3
353.15 K | 1254.5
363.15 K | 1246.9
